From ChEMBL document CHEMBL1649232 (Antimicrob Agents Chemother, 2009)

Legend:
[1] = Cmax in healthy human at […] parenteral dose; assay type: ADME, organism-based; conditions: in vivo
[2] = Drug level in sputum of healthy human between 6 to 24 hrs postdosing; assay type: ADME, tissue-based; conditions: in vivo

Q: With `CCC(CC)[C@H](NC(C)=O)[C@@H]1[C@H](O)[C@@H](C(=O)O)C[C@H]1NC(=N)N` [PERAMIVIR ANHYDROUS] as the molecule, how does the Cmax [1] read?
A: Its Cmax is 10000 ng/mL.

Q: Which Drug uptake [2] does the source give for `CC(=O)N[C@H]1[C@H]([C@H](O)[C@H](O)CO)OC(C(=O)O)=C[C@@H]1N=C(N)N` [ZANAMIVIR] here?
A: The Drug uptake was 47 ng/mL.
